In the assay the target is T1, GCase (Homo sapiens, UniProt P04062).
T1 construct: endogenous in cells; host or cells: HeLa cells
T1 sequence (P04062 40-536): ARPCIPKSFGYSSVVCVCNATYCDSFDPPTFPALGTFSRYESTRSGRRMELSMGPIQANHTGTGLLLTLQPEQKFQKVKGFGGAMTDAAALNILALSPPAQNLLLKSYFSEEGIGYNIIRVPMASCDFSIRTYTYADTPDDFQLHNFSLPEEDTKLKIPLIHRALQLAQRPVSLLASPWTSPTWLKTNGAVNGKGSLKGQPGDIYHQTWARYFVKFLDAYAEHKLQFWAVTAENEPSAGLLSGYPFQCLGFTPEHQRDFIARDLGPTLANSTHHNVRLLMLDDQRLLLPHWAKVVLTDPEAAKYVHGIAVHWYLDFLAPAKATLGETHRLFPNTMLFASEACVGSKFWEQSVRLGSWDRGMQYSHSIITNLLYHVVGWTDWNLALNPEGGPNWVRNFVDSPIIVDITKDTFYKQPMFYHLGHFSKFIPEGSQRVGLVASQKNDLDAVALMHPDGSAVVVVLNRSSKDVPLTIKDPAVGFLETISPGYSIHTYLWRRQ
Put plainly: activation of GCase in a live cell PFB assay in HELA cells. The class given is cell-based. The method, then:
Exemplary compounds were evaluated for activation of GCase in a live cell PFB assay in HELA cells (essentially as described in Ysselstein et al., “LRRK2 kinase activity regulates lysosomal glucocerebrosidase in neurons derived from Parkinson's disease patients” Nature Communications (2019) 10:5570). […] EC50 ranges: A: <10 μM; B: >10-50 μM; C: >50-100 μM; D: >100 μM.

Where [1] appears, read: activation of GCase, EC50 ranges.

For orientation: EC50 means the concentration at which the effect is half-maximal. Molecule `FC(F)Cn1ncc2ncc(N3CCC4(CC3)CC(Oc3cccc(C(F)(F)F)n3)C4)nc21` [Compound 84, 7-[1-(2,2-difluoroethyl)-1H-pyrazolo[3,4-b]pyrazin-6-yl]-2-{[6-(trifluoromethyl)pyridin-2-yl]oxy}-7-azaspiro[3.5]nonane] showed an EC50 under setting [1] of 10 to 50 µM.

The molecule `O=C1N(c2ccc(C(F)(F)F)nc2)CCC12CCN(c1cnc3cnn(CC(F)F)c3n1)C2` (centres unmarked) [Cmpd 201] returned an EC50 (EC50 given as range classes) of 10 to 50 µM.

Consider `COc1nn(C2COC2)c2nc(N3CCC4(CN(c5ccnc(C(F)(F)F)c5)C4)C3)ncc12` [Cmpd 945], for which the EC50 under setting [1] was in the range of 10 to 50 µM.

As to `O=C1CC2(CCN(c3ccc(C(F)(F)F)nc3)CC2)CN1c1cnc2cnn(CC(F)F)c2n1` [Compound 110, 2-[1-(2,2-difluoroethyl)-1H-pyrazolo[3,4-b]pyrazin-6-yl]-8-[6-(trifluoromethyl)pyridin-3-yl]-2,8-diazaspiro[4.5]decan-3-one], the EC50 under setting [1] lay in the range of 10 to 50 µM.

On to `FC(F)Cn1ncc2ncc(N3CCC4(CCN(c5cc(C(F)(F)F)ccn5)CC4)CC3)nc21` [Cmpd 811], for which the EC50 (EC50 given as range classes) is < 10 µM.

As for `CCn1c(N2CCC3(CN(c4cc(C(F)(F)F)nc(C)n4)C3)C2)nc2c(cnn2CC(F)(F)F)c1=O` [Cmpd 1114], the EC50 under setting [1] is < 10 µM.

Take `Cc1nn(CC(F)F)c2nc(N3CCC4(CC3)CC(=O)N(c3ccnc(C(F)(F)F)n3)C4)cnc12` [Cmpd 898]: the EC50 under setting [1] was < 10 µM.

The molecule `FC(F)Cn1ncc2ncc(N3CCCC4(CN(c5cccc(C(F)(F)F)n5)C4)C3)nc21` [Compound 23, 6-[1-(2,2-difluoroethyl)-1H-pyrazolo[3,4-b]pyrazin-6-yl]-2-[6-(trifluoromethyl)pyridin-2-yl]-2,6-diazaspiro[3.5]nonane] came in with an EC50 under setting [1] of 10 to 50 µM.

The values are drawn from patent publication US20250034170A1, “SMALL MOLECULE MODULATORS OF GLUCOCEREBROSIDASE ACTIVITY AND USES THEREOF” (Vanqua Bio, Inc., priority 2021, published 2025).
